Test results published in US4735961A, “Oxazoles and thiazoles containing an aminohydroxypropoxyphenyl moiety” (Merck & Co., Inc., priority 1985, dated 1988).

Test system: β2 : β1 receptors
Test: cardioselectivity, β2:β1 ratio (pulmonary versus cardiac effect, guinea pig trachea versus atria)
Format: cell-based
Conditions: ratio of pulmonary (β2) to cardiac (β1) effect; over 1 = cardioselective
Excerpt: Expressed in different terms, a smaller amount of a compound of the invention is required to block isoproterenol-induced elevation in heart rate than is required to block the isoproterenol-induced relaxation of the bronchi. This cardioselectivity factor can be expressed as the ratio of ED50 for pulmonary effect (β2):ED50 for cardiac effect (β1). Where the β2 :β1 ratio is over 1, then the compound would be considered to have cardioselective activity.

SMILES | β2 :β1
COc1ccc(CCNCC(O)COc2ccc(-c3ncco3)cc2)cc1OC (stereo not drawn) [Example 1, 2-p-[3-(3,4-Dimethoxyphenethylamino)-2-hydroxypropoxy]phenyl oxazole] | 19
OC(CNC1CC1)COc1ccc(-c2nccs2)cc1 (stereo not drawn) [Example 3, 2-[p-(3-Cyclopropylamino-2-hydroxypropoxy)phenyl]thiazole] | 85
COc1ccc(CCNC[C@H](O)COc2ccc(-c3nccs3)cc2)cc1OC [Example 2, (S) 2-p-[3-(3,4-Dimethoxyphenylethyl)amino-2-hydroxypropoxy]phenyl thiazole] | 813
